# From patent publication US20220000117A1, “METHOD FOR CONTROLLING DISEASES IN SMALL GRAIN CEREALS, SEED OF SMALL GRAIN CEREALS, AND METHOD FOR SUPPRESSING LODGING DAMAGE IN SMALL GRAIN CEREALS” (KUMIAI CHEMICAL INDUSTRY CO., LTD., priority 2019, published 2022)
# Tests used:
# powdery mildew = test: Test Example 9: control test of wheat powdery mildew, cup in greenhouse, inoculated, Norin No. 61 (Tables 10 to 14); format: in vivo, Blumeria graminis; set-up: key to Degree of Disease Occurrence: Σ(index×leaves)/(4×leaves investigated)×100; 0 = no disease, 100 = max
# Procedure: (§1) Degree of Disease Occurrence=Σ(Index×Number of Leaves of Index)/(4×Number of Investigated Leaves)×100 (1)
# Seed of wheat (variety: Norin No. 61) was used, and 100 ml of suspension waters each containing the compound shown in Table 10 at an amount shown in […] (synthesis was performed in accordance with a known method, a solution dissolved in DMSO or formulated 10% wettable powder was used) were prepared. The seed having a mass of 1 kg of wheat was mixed into the suspension water with a chemical treated amount shown in Table 10, and air-dried, and then, 5 seeds were sown in a plastic cup having a diameter of 6 cm containing river sand and managed in a greenhouse. In Comparative Examples, 20 ml of the suspension water of an active ingredient, which had been adjusted to have a concentration shown in Table 10, was sprayed in a frame of 45 cm×45 cm in which a pot of wheat seedlings was placed (corresponding to 1000 L/ha) 14 days after seeding. On day 14 after seeding, conidiospores of powdery mildew were sifted over leaves of wheat seedlings and inoculated onto the leaves (after the sprayed liquid was dried in the case of Comparative Examples), a lesion area ratio of powdery mildew in a first leaf was investigated 21 days after seeding according to the criteria in Table 1, and the degree of disease occurrence was calculated by the above calculation formula (1).
# septoria leaf blotch = test: Test Example 10: control test of septoria leaf blotch of wheat, cup in greenhouse, inoculated, variety ARKEOS (Tables 15 to 19); format: in vivo, Septoria tritici
# Procedure: as §1
# Seed of wheat (variety: ARKEOS) was used, and 100 ml of suspension waters each containing the compound shown in Table 15 at an amount shown in Table 15 (synthesis was performed in accordance with a known method, a liquid dissolved in a small amount of DMSO or formulated 10% wettable powder was used) were prepared. Seed having a mass of 1 kg was mixed into the suspension water with a rate shown in Examples of Table 15, and air-dried, and then, 5 seeds were sown in a plastic cup having a diameter of 6 cm containing mixed soil of river sand and horticultural soil and managed in a greenhouse. In Comparative Examples, 20 ml of suspension water of an active ingredient, which had been adjusted to have a concentration shown in Table 15 to 19, was sprayed in a frame of 45 cm×45 cm in which a pot of wheat seedlings was placed (corresponding to 1000 L/ha) 14 days after seeding. On day 14 after seeding, a spore suspension in which conidiospores of septoria leaf blotch are suspended was sprayed and inoculated on leaves of wheat seedlings (after the sprayed liquid was dried in the case of Comparative Examples), a lesion area ratio of septoria leaf blotch in a second leaf was investigated approximately 35 days after seeding according to the criteria in Table 1, and the degree of disease occurrence was calculated by the above calculation formula (1).
# [1] = Table 14, Foliage Treatment, spray 10 ppm suspension water (corresponding to 10 g/ha) 14 days after seeding, untreated 70.0
# [2] = Table 14, Foliage Treatment, spray 10 ppm suspension water (corresponding to 10 g/ha) 14 days after seeding, untreated 100.0
# [3] = Table 14, Foliage Treatment, spray 100 ppm suspension water (corresponding to 100 g/ha) 14 days after seeding, untreated 70.0
# [4] = Table 14, Foliage Treatment, spray 100 ppm suspension water (corresponding to 100 g/ha) 14 days after seeding, untreated 100.0
# [5] = Table 14, Seed Treatment, 0.1 g/Seed 1 kg (corresponding to 10 g/ha), first leaf, 21 days after seeding, untreated 70.0
# [6] = Table 14, Seed Treatment, 0.1 g/Seed 1 kg (corresponding to 10 g/ha), first leaf, 21 days after seeding, untreated 100.0
# [7] = Table 14, Seed Treatment, 1 g/Seed 1 kg (corresponding to 100 g/ha), first leaf, 21 days after seeding, untreated 70.0
# [8] = Table 14, Seed Treatment, 1 g/Seed 1 kg (corresponding to 100 g/ha), first leaf, 21 days after seeding, untreated 100.0
# [9] = Table 19, Foliage Treatment, spray 50 ppm suspension water (corresponding to 50 g/ha) 14 days after seeding, untreated 45.0
# [10] = Table 19, Foliage Treatment, spray 50 ppm suspension water (corresponding to 50 g/ha) 14 days after seeding, untreated 98.0
# [11] = Table 19, Seed Treatment, 0.5 g/Seed 1 kg (corresponding to 50 g/ha), untreated 45.0
# [12] = Table 19, Seed Treatment, 0.5 g/Seed 1 kg (corresponding to 50 g/ha), untreated 98.0
# [13] = Table 12 run (different day), Foliage Treatment, spray 5 ppm (5 g/ha)
# [14] = Table 12 run (different day), Foliage Treatment, spray 10 ppm (10 g/ha)
# [15] = Table 12 run (different day), Foliage Treatment, spray 50 ppm (50 g/ha)
# [16] = Table 12 run (different day), Seed Treatment 0.05 g/Seed 1 kg (5 g/ha)
# [17] = Table 12 run (different day), Seed Treatment 0.1 g/Seed 1 kg (10 g/ha)
# [18] = Table 12 run (different day), Seed Treatment 0.5 g/Seed 1 kg (50 g/ha)
# [19] = Table 14, Foliage Treatment, spray 50 ppm suspension water (corresponding to 50 g/ha) 14 days after seeding, untreated 70.0
# [20] = Table 14, Foliage Treatment, spray 50 ppm suspension water (corresponding to 50 g/ha) 14 days after seeding, untreated 100.0
# [21] = Table 14, Seed Treatment, 0.5 g/Seed 1 kg (corresponding to 50 g/ha), first leaf, 21 days after seeding, untreated 70.0
# [22] = Table 14, Seed Treatment, 0.5 g/Seed 1 kg (corresponding to 50 g/ha), first leaf, 21 days after seeding, untreated 100.0
# [23] = Table 18, Foliage Treatment, spray 5 ppm (5 g/ha)
# [24] = Table 18, Foliage Treatment, spray 10 ppm (10 g/ha)
# [25] = Table 18, Seed Treatment 0.05 g/Seed 1 kg (5 g/ha)
# [26] = Table 18, Seed Treatment 0.1 g/Seed 1 kg (10 g/ha)
# [27] = Table 18, Foliage Treatment, spray 50 ppm (50 g/ha)
# [28] = Table 18, Seed Treatment 0.5 g/Seed 1 kg (50 g/ha)
# [29] = Table 13 run (different day), Foliage Treatment, spray 5 ppm (5 g/ha)
# [30] = Table 13 run (different day), Foliage Treatment, spray 10 ppm (10 g/ha)
# [31] = Table 13 run (different day), Foliage Treatment, spray 50 ppm (50 g/ha)
# [32] = Table 13 run (different day), Seed Treatment 0.05 g/Seed 1 kg (5 g/ha)
# [33] = Table 13 run (different day), Seed Treatment 0.1 g/Seed 1 kg (10 g/ha)
# [34] = Table 13 run (different day), Seed Treatment 0.5 g/Seed 1 kg (50 g/ha)
SMILES,Degree of Disease Occurrence (powdery mildew; [1]),Disease Leaf Rate (%) (powdery mildew; [2]),Degree of Disease Occurrence (powdery mildew; [3]),Disease Leaf Rate (%) (powdery mildew; [4]),Degree of Disease Occurrence (powdery mildew; [5]),Disease Leaf Rate (%) (powdery mildew; [6]),Degree of Disease Occurrence (powdery mildew; [7]),Disease Leaf Rate (%) (powdery mildew; [8]),Degree of Disease Occurrence (septoria leaf blotch; [9]),Disease Leaf Rate (%) (septoria leaf blotch; [10]),Degree of Disease Occurrence (septoria leaf blotch; [11]),Disease Leaf Rate (%) (septoria leaf blotch; [12]),Degree of Disease Occurrence (powdery mildew; [14]),Disease Leaf Rate (%) (powdery mildew; [14]),Degree of Disease Occurrence (powdery mildew; [17]),Disease Leaf Rate (%) (powdery mildew; [17]),Degree of Disease Occurrence (powdery mildew; [19]),Disease Leaf Rate (%) (powdery mildew; [20]),Degree of Disease Occurrence (powdery mildew; [21]),Disease Leaf Rate (%) (powdery mildew; [22]),also measured
N=C(OCc1ccccc1)c1snc(Cl)c1Cl [Compound (12)],56.9,94.4%,47.9,93.3%,21.3,75.8%,34.1,87.5%,39.2,93.6%,10.3,41.3%,,,,,,,,,"Degree of Disease Occurrence (septoria leaf blotch; Table 19, Foliage Treatment, spray 10 ppm suspension water (corresponding to 10 g/ha) 14 days after seeding, untreated 45.0): 53.3; Disease Leaf Rate (%) (septoria leaf blotch; Table 19, Foliage Treatment, spray 10 ppm suspension water (corresponding to 10 g/ha) 14 days after seeding, untreated 98.0): 99.3%; Degree of Disease Occurrence (septoria leaf blotch; Table 19, Seed Treatment, 0.1 g/Seed 1 kg (corresponding to 10 g/ha), untreated 45.0): 26.3; Disease Leaf Rate (%) (septoria leaf blotch; Table 19, Seed Treatment, 0.1 g/Seed 1 kg (corresponding to 10 g/ha), untreated 98.0): 75.0%"
N=C(N)c1snc(Cl)c1Cl [Compound (13)],35.6,76.7%,,,17.2,68.8%,,,,,,,36.7,53.3%,7.5,20.0%,31.3,83.3%,13.9,44.4%,Degree of Disease Occurrence (powdery mildew; [13]): 60.0; Disease Leaf Rate (%) (powdery mildew; [13]): 100.0%; Degree of Disease Occurrence (powdery mildew; [15]): 21.7; Disease Leaf Rate (%) (powdery mildew; [15]): 53.3%; Degree of Disease Occurrence (powdery mildew; [16]): 19.4; Disease Leaf Rate (%) (powdery mildew; [16]): 53.3%; Degree of Disease Occurrence (powdery mildew; [18]): 9.7; Disease Leaf Rate (%) (powdery mildew; [18]): 38.9%; Degree of Disease Occurrence (septoria leaf blotch; [23]): 60.0; Disease Leaf Rate (%) (septoria leaf blotch; [23]): 100.0%; Degree of Disease Occurrence (septoria leaf blotch; [24]): 68.3; Disease Leaf Rate (%) (septoria leaf blotch; [24]): 100.0%; Degree of Disease Occurrence (septoria leaf blotch; [25]): 28.8; Disease Leaf Rate (%) (septoria leaf blotch; [25]): 95.0%; Degree of Disease Occurrence (septoria leaf blotch; [26]): 42.5; Disease Leaf Rate (%) (septoria leaf blotch; [26]): 100.0%
N=C(N)c1snc(Cl)c1Cl [Compound (14)],,,14.4,44.4%,,,11.3,40.0%,,,,,,,,,18.3,61.1%,7.8,25.0%,Degree of Disease Occurrence (septoria leaf blotch; [27]): 48.3; Disease Leaf Rate (%) (septoria leaf blotch; [27]): 100.0%; Degree of Disease Occurrence (septoria leaf blotch; [28]): 42.5; Disease Leaf Rate (%) (septoria leaf blotch; [28]): 90.0%
CCNC(=N)c1snc(Cl)c1Cl [Compound (15)],,,,,,,,,39.2,93.6%,10.3,41.3%,80.0,93.3%,31.3,60.0%,47.9,100.0%,13.1,37.5%,Degree of Disease Occurrence (powdery mildew; [13]): 66.7; Disease Leaf Rate (%) (powdery mildew; [13]): 100.0%; Degree of Disease Occurrence (powdery mildew; [15]): 38.3; Disease Leaf Rate (%) (powdery mildew; [15]): 60.0%; Degree of Disease Occurrence (powdery mildew; [16]): 40.8; Disease Leaf Rate (%) (powdery mildew; [16]): 70.0%; Degree of Disease Occurrence (powdery mildew; [18]): 11.9; Disease Leaf Rate (%) (powdery mildew; [18]): 34.4%
N=C(Nc1ccccc1)c1snc(Cl)c1Cl [Compound (16)],32.6,80.6%,29.2,80.6%,15.2,60.8%,18.2,50.0%,38.3,99.7%,29.4,82.5%,63.3,100.0%,22.5,65.0%,19.6,53.3%,8.9,35.4%,Degree of Disease Occurrence (powdery mildew; [15]): 43.3; Disease Leaf Rate (%) (powdery mildew; [15]): 80.0%; Degree of Disease Occurrence (powdery mildew; [18]): 6.3; Disease Leaf Rate (%) (powdery mildew; [18]): 16.7%
N/C(=N\O)c1snc(Cl)c1Cl [Compound (17)],,,,,,,,,38.3,99.7%,29.4,82.5%,43.3,80.0%,10.4,25.0%,,,,,"Degree of Disease Occurrence (powdery mildew; [13]): 45.0; Disease Leaf Rate (%) (powdery mildew; [13]): 93.3%; Degree of Disease Occurrence (powdery mildew; [16]): 23.3; Disease Leaf Rate (%) (powdery mildew; [16]): 66.7%; Degree of Disease Occurrence (powdery mildew; [29]): 85.8; Disease Leaf Rate (%) (powdery mildew; [29]): 100.0%; Degree of Disease Occurrence (powdery mildew; [30]): 62.4; Disease Leaf Rate (%) (powdery mildew; [30]): 95.8%; Degree of Disease Occurrence (powdery mildew; [31]): 42.4; Disease Leaf Rate (%) (powdery mildew; [31]): 90.6%; Degree of Disease Occurrence (powdery mildew; [32]): 66.7; Disease Leaf Rate (%) (powdery mildew; [32]): 100.0%; Degree of Disease Occurrence (powdery mildew; [33]): 47.9; Disease Leaf Rate (%) (powdery mildew; [33]): 100.0%; Degree of Disease Occurrence (powdery mildew; [34]): 33.1; Disease Leaf Rate (%) (powdery mildew; [34]): 83.8%; Degree of Disease Occurrence (septoria leaf blotch; Table 19, Foliage Treatment, spray 100 ppm suspension water (corresponding to 100 g/ha) 14 days after seeding, untreated 45.0): 36.7; Disease Leaf Rate (%) (septoria leaf blotch; Table 19, Foliage Treatment, spray 100 ppm suspension water (corresponding to 100 g/ha) 14 days after seeding, untreated 98.0): 94.9%; Degree of Disease Occurrence (septoria leaf blotch; Table 19, Seed Treatment, 1 g/Seed 1 kg (corresponding to 100 g/ha), untreated 45.0): 20.9; Disease Leaf Rate (%) (septoria leaf blotch; Table 19, Seed Treatment, 1 g/Seed 1 kg (corresponding to 100 g/ha), untreated 98.0): 78.8%"
